How the values were obtained:
[1] = molecular target: T1, human CB2 receptors (Homo sapiens, UniProt P34972); assay: human CB2 radioligand binding assay ([3H]CP-55,940 competition)
T1 construct: expressed in transfected cells; host or cells: HEK293

[2] = molecular target: T2, rat CB2 (Rattus norvegicus, UniProt Q9QZN9); assay: rat CB2 cyclase functional assay (HitHunter cAMP, HEK cells); type: cell-based; parameters: expressed in transfected cells; host or cells: HEK; settings: forskolin 18 μM
T2 sequence (Q9QZN9 1-360): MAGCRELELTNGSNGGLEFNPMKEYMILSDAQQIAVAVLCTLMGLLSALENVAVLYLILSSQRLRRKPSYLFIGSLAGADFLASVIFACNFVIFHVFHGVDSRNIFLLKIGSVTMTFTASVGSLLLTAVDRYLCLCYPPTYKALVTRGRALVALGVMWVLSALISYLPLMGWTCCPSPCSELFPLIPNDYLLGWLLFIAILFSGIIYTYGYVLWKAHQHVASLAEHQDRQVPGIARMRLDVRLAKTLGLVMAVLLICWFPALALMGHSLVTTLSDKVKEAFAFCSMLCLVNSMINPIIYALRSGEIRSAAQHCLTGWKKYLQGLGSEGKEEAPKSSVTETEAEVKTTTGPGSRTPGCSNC

[3] = molecular target: T2, rat CB2; assay: rat CB2 radioligand binding assay ([3H]CP-55,940 competition); parameters: expressed in transfected cells; host or cells: HEK293

T1 sequence (P34972 whole entry): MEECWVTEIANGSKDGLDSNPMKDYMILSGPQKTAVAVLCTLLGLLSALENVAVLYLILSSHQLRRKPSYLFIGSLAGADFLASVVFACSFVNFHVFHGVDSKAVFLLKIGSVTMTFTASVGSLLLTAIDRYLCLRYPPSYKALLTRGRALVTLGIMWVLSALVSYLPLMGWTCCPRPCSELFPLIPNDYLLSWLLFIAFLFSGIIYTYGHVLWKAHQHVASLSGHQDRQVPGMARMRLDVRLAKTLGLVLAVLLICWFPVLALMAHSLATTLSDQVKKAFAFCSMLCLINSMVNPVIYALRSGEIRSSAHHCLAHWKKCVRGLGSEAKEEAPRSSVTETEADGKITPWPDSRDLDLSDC

Row | Compound | Ki [1] [nM] | EC50 [2] [nM] | Ki [3] [nM]
1 | CCCCc1cn(C(C)(C)C)s/c1=N\S(=O)(=O)c1cccc(Cl)c1Cl [Example 122, N-[(5Z)-4-butyl-2-tert-butylisothiazol-5(2H)-ylidene]-2,3-dichlorobenzenesulfonamide] | 18 | 1.9 | 11
2 | CCCCc1cn(C(C)(C)C)s/c1=N\C(=O)C12CC3CC(CC(C3)C1)C2 [Example 123, N-[(5Z)-4-butyl-2-tert-butylisothiazol-5(2H)-ylidene]adamantane-1-carboxamide] | 0.31 | 0.13 | 0.17
3 | CCCCc1cn(C(C)(C)C)s/c1=N\C(=NC#N)c1cc(C(F)(F)F)ccc1OC [Example 124, N-[(5Z)-4-butyl-2-tert-butylisothiazol-5(2H)-ylidene]-N′-cyano-2-methoxy-5-(trifluoromethyl)benzenecarboximidamide] | 3 | 0.027 | 2.3
4 | CCCCc1cn(C(C)(C)C)s/c1=N\C(=O)C1=CC(=O)CC(C)(C)O1 [Example 125, N-[(5Z)-4-butyl-2-tert-butylisothiazol-5(2H)-ylidene]-2,2-dimethyl-4-oxo-3,4-dihydro-2H-pyran-6-carboxamide] | 31 | 2.6 | 1
5 | CCCCc1cn(C(C)(C)C)s/c1=N\C(=NC#N)c1cc(C(F)(F)F)ccc1OCC [Example 126, N-[(5Z)-4-butyl-2-tert-butylisothiazol-5(2H)-ylidene]-N′-cyano-2-ethoxy-5-(trifluoromethyl)benzenecarboximidamide] | 0.6 | 0.076 | 1.2
6 | CCCCc1cn(C(C)(C)C)s/c1=N\C(=O)c1cc(C(F)(F)F)ccc1OC [Example 127, N-[(5Z)-4-butyl-2-tert-butylisothiazol-5(2H)-ylidene]-2-methoxy-5-(trifluoromethyl)benzamide] | 3.7 | 0.16 | 0.43
7 | COc1ccc(Cl)cc1C(=NC#N)/N=c1\sn(C(C)(C)C)cc1CCCC#N [Example 128, N-[(5Z)-2-tert-butyl-4-(3-cyanopropyl)isothiazol-5(2H)-ylidene]-5-chloro-N′-cyano-2-methoxybenzenecarboximidamide] | 15 | 0.26 | 5.8
8 | CC(C)(C)n1cc(CCCC#N)/c(=N/C(=O)c2cc(Cl)ccc2OCC(F)(F)F)s1 [Example 133, N-[(5Z)-2-tert-butyl-4-(3-cyanopropyl)isothiazol-5(2H)-ylidene]-5-chloro-2-(2,2,2-trifluoroethoxy)benzamide] | 15 | 1.4 | 1.1
9 | COc1ccc(C(F)(F)F)cc1C(=O)/N=c1\sn(C(C)(C)C)cc1CCCC#N [Example 134, N-[(5Z)-2-tert-butyl-4-(3-cyanopropyl)isothiazol-5(2H)-ylidene]-2-methoxy-5-(trifluoromethyl)benzamide] | 18 | 1.6 | 1.1
10 | COc1ccc(Cl)cc1C(=O)/N=c1\sn(C(C)(C)C)cc1CC1CCCC1 [Example 136, N-[(5Z)-2-tert-butyl-4-(cyclopentylmethyl)isothiazol-5(2H)-ylidene]-5-chloro-2-methoxybenzamide] | 1.9 | 0.051 | 0.51
11 | COc1ccc(Cl)cc1C(=O)/N=c1\sn(C(C)(C)C)cc1CCC(C)(C)C#N [Example 137, N-[(5Z)-2-tert-butyl-4-(3-cyano-3-methylbutyl)isothiazol-5(2H)-ylidene]-5-chloro-2-methoxybenzamide] | 7.5 | 2.2 | 2.6
12 | COc1ccc(Cl)cc1C(=O)/N=c1\sn(C(C)(C)C)cc1CCCCC#N [Example 138, N-[(5Z)-2-tert-butyl-4-(4-cyanobutyl)isothiazol-5(2H)-ylidene]-5-chloro-2-methoxybenzamide] | 5.9 | 12.8 | 0.9
13 | CCCCc1cn(C(C)(C)C)s/c1=N\C(=O)c1cc(Cl)ccc1OCCF [Example 139, N-[(5Z)-4-butyl-2-tert-butylisothiazol-5(2H)-ylidene]-5-chloro-2-(2-fluoroethoxy)benzamide] | 5.5 | 0.059 | 2
14 | CCCCc1cn(C(C)(C)C)s/c1=N\C(=O)c1cc(Cl)ccc1OCC(N)=O [Example 140, 2-(2-amino-2-oxoethoxy)-N-[(5Z)-4-butyl-2-tert-butylisothiazol-5(2H)-ylidene]-5-chlorobenzamide] | 11 | 0.15 | 3.9
15 | CC(C)(C)n1cc(CCCC#N)/c(=N/C(=O)c2cc(Cl)ccc2OCC(N)=O)s1 [Example 141, 2-(2-amino-2-oxoethoxy)-N-[(5Z)-2-tert-butyl-4-(3-cyanopropyl)isothiazol-5(2H)-ylidene]-5-chlorobenzamide] | 56 | 0.094 | 15
16 | COc1ccc(Cl)cc1C(=O)/N=c1\sn(C(C)(C)C)cc1CCCC(F)(F)F [Example 142, N-[(5Z)-2-tert-butyl-4-(4,4,4-trifluorobutyl)isothiazol-5(2H)-ylidene]-5-chloro-2-methoxybenzamide] | 2.2 | 0.062 | 0.43
17 | COc1ccc(C(F)(F)F)cc1C(=O)/N=c1\sn(C(C)(C)C)cc1CC(C)C [Example 143, N-[(5Z)-2-tert-butyl-4-isobutylisothiazol-5(2H)-ylidene]-2-methoxy-5-(trifluoromethyl)benzamide] | 11 | 0.1 | 1.8
18 | CC(C)Cc1cn(C(C)(C)C)s/c1=N\C(=O)c1cc(Cl)ccc1OCCF [Example 144, N-[(5Z)-2-tert-butyl-4-isobutylisothiazol-5(2H)-ylidene]-5-chloro-2-(2-fluoroethoxy)benzamide] | 8.8 | 0.1 | 1.2
19 | COc1ccc(C#N)cc1C(=O)/N=c1\sn(C(C)(C)C)cc1CC(C)C [Example 145, N-[(5Z)-2-tert-butyl-4-isobutylisothiazol-5(2H)-ylidene]-5-cyano-2-methoxybenzamide] | 58 | 0.078 | 6.1
20 | CCOc1ccc(C(F)(F)F)cc1C(=O)/N=c1\sn(C(C)(C)C)cc1CC(C)C [Example 146, N-[(5Z)-2-tert-butyl-4-isobutylisothiazol-5(2H)-ylidene]-2-ethoxy-5-(trifluoromethyl)benzamide] | 24 | 0.29 | 3.1
21 | CCCCCc1cn(C(C)(C)C)s/c1=N\C(=O)c1cc(Cl)ccc1OC [Example 147, N-[(5Z)-2-tert-butyl-4-pentylisothiazol-5(2H)-ylidene]-5-chloro-2-methoxybenzamide] | 1.6 | 0.062 | 0.15
22 | COc1ccc(Cl)cc1C(=O)/N=c1\sn(C(C)(C)C)cc1CCCCF [Example 148, N-[(5Z)-2-tert-butyl-4-(4-fluorobutyl)isothiazol-5(2H)-ylidene]-5-chloro-2-methoxybenzamide] | 7.6 | 0.11 | 0.24
23 | COc1ccc(C(F)(F)F)cc1C(=O)/N=c1\sn(C(C)(C)C)cc1CCCCF [Example 149, N-[(5Z)-2-tert-butyl-4-(4-fluorobutyl)isothiazol-5(2H)-ylidene]-2-methoxy-5-(trifluoromethyl)benzamide] | 8.3 | 0.23 | 0.15

— patent US8501794B2, “Compounds as cannabinoid receptor ligands” (priority 2007, dated 2013)
